Marks after values point to notes of the source that are not given here.
Legend:
Type in all cases: in vivo
Details in all cases: 100 = 100% disease control
Alternaria solani = assay: Test D: tomato early blight, sprayed the day before inoculation, visual disease rating
In short: (§1)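 200 ppm run-off spray (500 g/ha equivalent); * = 40 ppm. Vehicle: acetone/water 50/50, 250 ppm Trem® 014.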

[1] = system: Puccinia recondita f. sp. tritici; assay: Test H: wheat leaf rust, test suspension sprayed after inoculation of wheat seedlings, visual disease rating
Excerpt: General protocol for preparing test suspensions for Tests A-J: The test compounds were first dissolved in acetone in an amount equal to 3% of the final volume and then suspended at the desired concentration (in ppm) in acetone and purified water (50/50 mix) containing 250 ppm of the surfactant Trem® 014 (polyhydric alcohol esters). The resulting test suspensions were then used in tests A-J. Spraying a 200 ppm test suspension to the point of run-off on the test plants was the equivalent of a rate of 500 g/ha. […] Wheat seedlings were inoculated with a spore suspension of Puccinia recondita f. sp. tritici (the causal agent of wheat leaf rust) and incubated in a saturated atmosphere at 20° C. for 24 h, and then moved to a growth chamber at 20° C. for 2 days. […] A dash (-) indicates no test results. All results are for 200 ppm except where followed by “*”, which indicates 40 ppm.

Septoria tritici = assay: Test G: wheat leaf blotch on wheat seedlings, sprayed the day before inoculation, visual disease rating
In short: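 Wheat seedlings were sprayed to run-off with test suspension (acetone/water plus surfactant), generally 200 ppm (≈500 g/ha), or 40 ppm where marked. Septoria tritici spores were inoculated the next day; plants were held 48 h at 24°C in saturated atmosphere, then 19 days at 20°C before visual disease rating.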

[2] = system: Puccinia recondita f. sp. tritici; assay: Test I: wheat leaf rust on wheat seedlings, sprayed the day before inoculation, visual disease rating
In short: as §1

Septoria nodorum = assay: Test F: wheat glume blotch on wheat seedlings, sprayed the day before inoculation, visual disease rating
In short: as §1

[3] = system: Erysiphe graminis f. sp. tritici; assay: Test J: wheat powdery mildew on wheat seedlings, sprayed the day before inoculation, visual disease rating
In short: as §1

Botrytis cinerea = assay: Test C: tomato Botrytis on tomato seedlings, sprayed the day before inoculation, visual disease rating
In short: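 Tomato seedlings were sprayed until run-off with test suspensions in acetone/water (50/50) carrying 250 ppm polyhydric alcohol ester surfactant. Standard dose was 200 ppm, with 40 ppm for marked entries.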

[4] = 200 ppm, 0 = no control relative to controls
[5] = 40 ppm (marked *), 0 = no control

Structure (SMILES) | Test D disease control rating (Alternaria solani; [4]) [%] | Test I disease control rating [2, 4] [%] | Test F disease control rating (Septoria nodorum; [4]) [%] | Test J disease control rating [3, 4] [%] | Test C disease control rating (Botrytis cinerea; [4]) [%] | Test G disease control rating (Septoria tritici; [4]) [%] | further results
COc1cc(F)c(-c2c(Cl)nc(Br)n2-c2ccc(OC)c(Cl)c2)c(F)c1 [compound 645] | – | – | – | – | – | – | Test D disease control rating (Alternaria solani; 40 ppm (marked *)): 17* %; Test H disease control rating ([1]; 40 ppm (marked *)): 0* %; Test G disease control rating (Septoria tritici; 40 ppm (marked *)): 95* %; Test I disease control rating ([2]; 40 ppm (marked *)): 83* %; Test F disease control rating (Septoria nodorum; 40 ppm (marked *)): 0* %; Test J disease control rating ([3]; 40 ppm (marked *)): 35* %; Test C disease control rating (Botrytis cinerea; 40 ppm (marked *)): 99* %
Cc1nc(C)n(-c2ccc(Cl)cc2)c1-c1c(F)cc(F)cc1F [compound 45] | 98 | 100 | 100 | 100 | 100 | – | Test H disease control rating [1, 4]: 99%
Fc1cc(F)c(-c2c(Cl)nc(Cl)n2-c2cccc(OC(F)F)c2)c(F)c1 [compound 597] | 100 | – | 97 | 100 | 100 | 98 | Test H disease control rating [1, 4]: 99%
Cc1nn(C)c(Cc2ccc(F)cc2F)c1-c1ccc(F)cc1Cl [Compound 313, 4-(2-chloro-4-fluorophenyl)-5-[(2,4-difluorophenyl)methyl]-1,3-dimethyl-1H-pyrazole] | – | – | – | – | – | – | pest or weed control at 200 ppm (Alternaria solani; Alternaria solani, 168 h, 200 ppm, 0 = no control relative to controls): 100%; pest or weed control at 200 ppm ([1]; Puccinia recondita, 96 h, 200 ppm, 0 = no control relative to controls): 95%; pest or weed control at 200 ppm ([2]; Puccinia recondita, 168 h, 200 ppm, 0 = no control relative to controls): 100%; pest or weed control at 200 ppm (Septoria nodorum; Parastagonospora nodorum, 264 h, 200 ppm, 0 = no control relative to controls): 0%; pest or weed control at 200 ppm ([3]; Blumeria graminis, 168 h, 200 ppm, 0 = no control relative to controls): 99%; pest or weed control at 200 ppm (Botrytis cinerea; Botrytis cinerea, 120 h, 200 ppm, 0 = no control relative to controls): 99%
Cc1nn(C)c(Cc2cccc(F)c2)c1-c1ccc(F)cc1Cl [compound 311] | 9 | 99 | 0 | 95 | 98 | – | Test H disease control rating [1, 4]: 100%
COc1cc(F)c(-c2c(Cl)nc(C)n2-c2ccc(SC#N)cc2)c(F)c1 [Compound 741, 4-[4-chloro-5-(2,6-difluoro-4-methoxyphenyl)-2-methyl-1H-1-yl]phenyl thiocyanate] | 99 | 99 | 92 | 72 | 100 | – | Test H disease control rating [1, 4]: 0%
Cc1ccc(-n2cnc(Cl)c2-c2c(F)cc(F)cc2F)cc1 [compound 139] | 100 | 98 | 0 | 98 | 99 | 75 | –
Fc1cccc(Cl)c1-c1c(Cl)nc(C(F)(F)F)n1-c1ccc(Cl)cc1 [compound 90] | 0 | 54 | 0 | 0 | 0 | 0 | –
Cc1nn(C)c(Cc2ccc(F)cc2)c1-c1ccc(F)cc1Cl [compound 312] | 82 | 99 | 0 | 92 | 99 | – | Test H disease control rating [1, 4]: 9%
COc1ccc(-c2c(Cl)nc(Br)n2-c2ccc(Cl)cc2)c(F)c1 [compound 110] | 99 | 97 | 100 | 96 | 94 | 95 | –
Cc1nc(C)n(-c2ccc(Cl)cc2)c1-c1c(F)cccc1F [compound 151] | – | – | – | – | – | – | Test D disease control rating (Alternaria solani; [5]): 100* %; Test G disease control rating (Septoria tritici; [5]): 99* %; Test I disease control rating [2, 5]: 89* %; Test F disease control rating (Septoria nodorum; [5]): 69* %; Test J disease control rating [3, 5]: 96* %; Test C disease control rating (Botrytis cinerea; [5]): 97* %
Cc1nc(Cl)c(-c2c(F)ccc(F)c2Cl)n1-c1ccc(Cl)c(F)c1 [compound 237] | – | – | – | – | – | – | Test D disease control rating (Alternaria solani; 200 ppm, 0 = no control): 100%; Test G disease control rating (Septoria tritici; 200 ppm, 0 = no control): 98%; Test I disease control rating ([2]; 200 ppm, 0 = no control): 100%; Test F disease control rating (Septoria nodorum; 200 ppm, 0 = no control): 100%; Test J disease control rating ([3]; 200 ppm, 0 = no control): 100%; Test C disease control rating (Botrytis cinerea; 200 ppm, 0 = no control): 100%
Fc1ccc(Cl)c(F)c1-c1c(Cl)nc(Br)n1-c1ccc(Cl)cc1 [compound 100] | 93 | 98 | 99 | 99 | 97 | 97 | –
COc1ccc(F)c(-c2c(Cl)nc(Cl)n2-c2ccc(I)cc2)c1F [compound 444] | 100 | 95 | 100 | 99 | 99 | 98 | –
Fc1cc(F)c(-n2c(Br)nc(Br)c2-c2ccc(Cl)cc2)c(F)c1 [compound 218] | – | – | – | – | – | – | Test D disease control rating (Alternaria solani; [5]): 99* %; Test G disease control rating (Septoria tritici; [5]): 91* %; Test I disease control rating [2, 5]: 80* %; Test F disease control rating (Septoria nodorum; [5]): 0* %; Test J disease control rating [3, 5]: 73* %; Test C disease control rating (Botrytis cinerea; [5]): 99* %
COc1cc(F)c(-c2c(Cl)nc(Cl)n2-c2ccc(Cl)cc2)c(F)c1 [compound 239] | – | – | – | – | – | – | Test D disease control rating (Alternaria solani; 200 ppm, 0 = no control): 100%; Test G disease control rating (Septoria tritici; 200 ppm, 0 = no control): 96%; Test I disease control rating ([2]; 200 ppm, 0 = no control): 99%; Test F disease control rating (Septoria nodorum; 200 ppm, 0 = no control): 100%; Test J disease control rating ([3]; 200 ppm, 0 = no control): 100%; Test C disease control rating (Botrytis cinerea; 200 ppm, 0 = no control): 100%
COc1cc(F)c(-c2c(Cl)ncn2-c2ccc(F)cc2)c(F)c1 [compound 136] | 100 | 100 | 99 | 100 | 99 | 96 | –
Cc1ccc(-n2c(C)nc(Cl)c2-c2c(F)ccc(F)c2F)cc1C [compound 238] | – | – | – | – | – | – | Test D disease control rating (Alternaria solani; 200 ppm, 0 = no control): 99%; Test G disease control rating (Septoria tritici; 200 ppm, 0 = no control): 93%; Test I disease control rating ([2]; 200 ppm, 0 = no control): 96%; Test F disease control rating (Septoria nodorum; 200 ppm, 0 = no control): 0%; Test J disease control rating ([3]; 200 ppm, 0 = no control): 100%; Test C disease control rating (Botrytis cinerea; 200 ppm, 0 = no control): 99%
COc1ccc(-c2c(Cl)ncn2-c2ccc(Cl)cc2)c(F)c1 [compound 106] | 99 | 99 | 64 | 95 | 100 | 93 | –
COc1cc(F)c(-c2c(Cl)nc(Br)n2-c2ccc(Cl)nc2)c(F)c1 [compound 729] | 100 | 100 | 99 | 100 | 100 | 99 | –
CCc1nc(Cl)c(-c2c(F)cccc2F)n1-c1ccc(Cl)cc1 [compound 108] | – | – | – | – | – | – | Test D disease control rating (Alternaria solani; 40 ppm (marked *)): 100* %; Test G disease control rating (Septoria tritici; 40 ppm (marked *)): 74* %; Test I disease control rating ([2]; 40 ppm (marked *)): 98* %; Test F disease control rating (Septoria nodorum; 40 ppm (marked *)): 0* %; Test J disease control rating ([3]; 40 ppm (marked *)): 99* %; Test C disease control rating (Botrytis cinerea; 40 ppm (marked *)): 100* %
Fc1cc(-n2c(Cl)nc(Cl)c2-c2c(F)ccc(F)c2Cl)ccc1Cl [compound 220] | – | – | – | – | – | – | Test D disease control rating (Alternaria solani; 200 ppm, 0 = no control): 99%; Test G disease control rating (Septoria tritici; 200 ppm, 0 = no control): 97%; Test I disease control rating ([2]; 200 ppm, 0 = no control): 99%; Test F disease control rating (Septoria nodorum; 200 ppm, 0 = no control): 0%; Test J disease control rating ([3]; 200 ppm, 0 = no control): 100%; Test C disease control rating (Botrytis cinerea; 200 ppm, 0 = no control): 98%
Cc1ccc(-n2c(Br)nc(Cl)c2-c2c(F)ccc(F)c2F)cc1C [compound 224] | – | – | – | – | – | – | Test D disease control rating (Alternaria solani; 200 ppm, 0 = no control): 51%; Test G disease control rating (Septoria tritici; 200 ppm, 0 = no control): 90%; Test I disease control rating ([2]; 200 ppm, 0 = no control): 80%; Test F disease control rating (Septoria nodorum; 200 ppm, 0 = no control): 0%; Test J disease control rating ([3]; 200 ppm, 0 = no control): 98%; Test C disease control rating (Botrytis cinerea; 200 ppm, 0 = no control): 93%
COc1ccc(F)c(-c2c(Cl)ncn2-c2ccc(Cl)cc2)c1F [compound 112] | 100 | 99 | 89 | 99 | 99 | 98 | –
